Source: patent US11390616B2 (BRISTOL-MYERS SQUIBB COMPANY, priority 2015, dated 2022)

These compounds were tested against T1, human APJ receptor (Homo sapiens, UniProt P35414) (assay: Intracellular cAMP accumulation assay (APJ hcAMP, HTRF)). Conditions: HEK293 cells stably expressing human APJ receptor; inhibition of forskolin-mediated cAMP production; read-out: APJ cAMP Potency range.
T1 construct: expressed in transfected cells; host or cells: HEK293
T1 sequence (P35414 1-380): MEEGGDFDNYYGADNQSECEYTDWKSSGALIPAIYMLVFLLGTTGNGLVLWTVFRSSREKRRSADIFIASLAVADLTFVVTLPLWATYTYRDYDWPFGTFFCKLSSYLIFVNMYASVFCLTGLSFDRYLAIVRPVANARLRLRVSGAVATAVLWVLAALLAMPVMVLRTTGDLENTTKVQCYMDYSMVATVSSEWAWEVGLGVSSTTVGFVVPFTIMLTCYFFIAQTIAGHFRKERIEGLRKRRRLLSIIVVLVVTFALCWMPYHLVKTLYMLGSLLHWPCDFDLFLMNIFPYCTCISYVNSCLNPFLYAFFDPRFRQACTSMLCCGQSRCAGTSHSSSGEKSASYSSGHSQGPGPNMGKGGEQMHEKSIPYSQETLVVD
Format: cell-based
Experimental: Intracellular cAMP Accumulation Assay
HEK293 cells stably expressing human APJ receptor were used to assess the activity of compounds. Cultured cells were detached and resuspended in the cAMP Homogeneous Time-Resolved Fluorescence (HTRF) assay buffer (Cisbio cat; #62AM4PEJ). The assay was performed in 384-well assay plates (Perkin-Elmer; cat #6008289) according to assay protocol provided by the manufacturer. Serial dilutions of a compound together with assay buffer containing […] IBMX and 2 μM forskolin were added to each well containing 5,000 cells and incubated for 30 minutes at room temperature. Subsequently, cAMP D2 reagent was added in the lysis buffer followed by the EuK antibody (Cisbio; cat #62AM4PEJ) and incubated for 60 min. The fluorescence emission ratio was measured using fluorometer. The intracellular cAMP concentrations (compound-stimulated inhibition of forskolin-mediated cAMP production) were calculated by extrapolation from a standard curve using known cAMP concentrations. The EC50 values were obtained by fitting the data to a sigmoidal concentration-response curve with variable slope. The maximal achievable inhibition of forskolin-induced cAMP levels (Ymax) for each compound was expressed as relative percentage of inhibition attained using pyroglutamated apelin-13 ((Pyr1)apelin-13) peptide, which was set to 100%.
The examples disclosed below were tested in the APJ in vitro assays described above and were found having human APJ cyclic AMP (hcAMP) activity. The EC50 value of each compound is presented at the end of the example description.
The biological activity of the exemplified compounds of this invention determined by the assay described above is shown at the end of each example.
`CCCCc1nc(O)c(Cc2ccc(OC)cc2)c(=O)n1-c1c(OC)cccc1OC` [Example 2, 2-butyl-3-(2,6-dimethoxyphenyl)-6-hydroxy-5-[(4-methoxyphenyl)methyl]-3,4-dihydropyrimidin-4-one] gave an EC50 of 10 to 100 nM.
`CCCCc1nc(O)c(Cc2ccc(OC)cc2)c(=O)n1-c1ccccc1OC` [Example 3, 2-butyl-6-hydroxy-3-(2-methoxyphenyl)-5-[(4-methoxyphenyl)methyl]-3,4-dihydropyrimidin-4-one] was tested, and the EC50 was 100 to 300 nM.
`CCCCc1nc(O)c(Cc2ccc(-n3cccn3)cc2)c(=O)n1-c1c(OC)cccc1OC` [Example 5, 2-butyl-3-(2,6-dimethoxyphenyl)-6-hydroxy-5-{[4-(1H-pyrazol-1-yl)phenyl]methyl}-3,4-dihydropyrimidin-4-one] was tested, and the EC50 was 0.01 to 10 nM.
For `CCCCc1nc(O)c(Cc2ccc(-c3ncon3)cc2F)c(=O)n1-c1c(OC)cccc1OC` [Example 6, 2-butyl-3-(2,6-dimethoxyphenyl)-5-{[2-fluoro-4-(1,2,4-oxadiazol-3-yl)phenyl]methyl}-6-hydroxy-3,4-dihydropyrimidin-4-one], the EC50 was 0.01 to 10 nM.
In the case of `CCCCc1nc(O)c(Cc2ccc(S(C)(=O)=O)cc2)c(=O)n1-c1c(OC)cccc1OC` [Example 7, 2-butyl-3-(2,6-dimethoxyphenyl)-6-hydroxy-5-[(4-methanesulfonylphenyl)methyl]-3,4-dihydropyrimidin-4-one], the EC50 is reported as 10 to 100 nM.
`CCCCc1nc(O)c(Cc2cc(C)on2)c(=O)n1-c1c(OC)cccc1OC` [Example 8, 2-butyl-3-(2,6-dimethoxyphenyl)-6-hydroxy-5-[(5-methyl-1,2-oxazol-3-yl)methyl]-3,4-dihydropyrimidin-4-one] gave an EC50 of 10 to 100 nM.
In the case of `CCCCc1nc(O)c(Cc2ccc(NC(C)=O)cc2)c(=O)n1-c1c(OC)cccc1OC` [Example 9, N-(4-{[2-butyl-1-(2,6-dimethoxyphenyl)-4-hydroxy-6-oxo-1,6-dihydropyrimidin-5-yl]methyl}phenyl)acetamide], the EC50 is reported as 10 to 100 nM.
`CCCCc1nc(O)c(Cc2ccc(-c3nc(C)no3)cc2)c(=O)n1-c1c(OC)cccc1OC` [Example 10, 2-butyl-3-(2,6-dimethoxyphenyl)-6-hydroxy-5-{[4-(3-methyl-1,2,4-oxadiazol-5-yl)phenyl]methyl}-3,4-dihydropyrimidin-4-one] showed an EC50 of 0.01 to 10 nM.
For `CCCCc1nc(O)c(Cc2coc(-c3ccc(Cl)cc3)n2)c(=O)n1-c1c(OC)cccc1OC` [Example 11, 2-butyl-5-{[2-(4-chlorophenyl)-1,3-oxazol-4-yl]methyl}-3-(2,6-dimethoxyphenyl)-6-hydroxy-3,4-dihydropyrimidin-4-one], the EC50 was 0.01 to 10 nM.
Work on `CCCCc1nc(O)c(Cc2ccc(-c3csnn3)cc2)c(=O)n1-c1c(OC)cccc1OC` [Example 12, 2-butyl-3-(2,6-dimethoxyphenyl)-6-hydroxy-5-{[4-(1,2,3-thiadiazol-4-yl)phenyl]methyl}-3,4-dihydropyrimidin-4-one] yielded an EC50 of 0.01 to 10 nM.
`CCCCc1nc(O)c(Cc2ccc(-c3ncon3)c(F)c2)c(=O)n1-c1c(OC)cccc1OC` [Example 13, 2-butyl-3-(2,6-dimethoxyphenyl)-5-{[3-fluoro-4-(1,2,4-oxadiazol-3-yl)phenyl]methyl}-6-hydroxy-3,4-dihydropyrimidin-4-one] showed an EC50 of 0.01 to 10 nM.
With `CCCCc1nc(O)c(Cc2ccc(-c3ccc(Cl)cc3)nc2)c(=O)n1-c1c(OC)cccc1OC` [Example 14, 2-butyl-5-{[6-(4-chlorophenyl)pyridin-3-yl]methyl}-3-(2,6-dimethoxyphenyl)-6-hydroxy-3,4-dihydropyrimidin-4-one] the EC50 was 0.01 to 10 nM.
For `CCCCc1nc(O)c(Cc2ccc(C(=O)NCC)cc2)c(=O)n1-c1c(OC)cccc1OC` [Example 15, 4-{[2-butyl-1-(2,6-dimethoxyphenyl)-4-hydroxy-6-oxo-1,6-dihydropyrimidin-5-yl]methyl}-N-ethylbenzamide], the EC50 was 10 to 100 nM.
`COc1cccc(OC)c1-n1c(CCC(C)C)nc(O)c(Cc2ccc(NC(C)=O)cc2)c1=O` [Example 16, N-(4-{[1-(2,6-dimethoxyphenyl)-4-hydroxy-2-(3-methylbutyl)-6-oxo-1,6-dihydropyrimidin-5-yl]methyl}phenyl)acetamide] gave an EC50 of 10 to 100 nM.
Work on `COc1cccc(OC)c1-n1c(CCC(C)C)nc(O)c(Cc2ccc(-c3ncon3)cc2)c1=O` [Example 17, 3-(2,6-dimethoxyphenyl)-6-hydroxy-2-(3-methylbutyl)-5-{[4-(1,2,4-oxadiazol-3-yl)phenyl]methyl}-3,4-dihydropyrimidin-4-one] yielded an EC50 of 10 to 100 nM.
In the case of `COc1cccc(OC)c1-n1c(CCC(C)C)nc(O)c(Cc2coc(-c3ccc(Cl)cc3)n2)c1=O` [Example 18, 5-{[2-(4-chlorophenyl)-1,3-oxazol-4-yl]methyl}-3-(2,6-dimethoxyphenyl)-6-hydroxy-2-(3-methylbutyl)-3,4-dihydropyrimidin-4-one], the EC50 is reported as 10 to 100 nM.
Compound `CCCCc1nc(O)c(Cc2ccccc2)c(=O)n1-c1c(OC)cccc1OC` [Example 19, 5-benzyl-2-butyl-3-(2,6-dimethoxyphenyl)-6-hydroxy-3,4-dihydropyrimidin-4-one] has an EC50 of 10 to 100 nM.
In the case of `CCCCc1nc(O)c(Cc2nc(-c3ccc(C(F)(F)F)cc3)no2)c(=O)n1-c1c(OC)cccc1OC` [Example 20, 2-butyl-3-(2,6-dimethoxyphenyl)-6-hydroxy-5-({3-[4-(trifluoromethyl)phenyl]-1,2,4-oxadiazol-5-yl}methyl)-3,4-dihydropyrimidin-4-one], the EC50 is reported as 0.01 to 10 nM.
`COc1cccc(OC)c1-n1c(CCC(C)C)nc(O)c(Cc2nnc(-c3ccc(C)cc3)o2)c1=O` [Example 21, 3-(2,6-dimethoxyphenyl)-6-hydroxy-2-(3-methylbutyl)-5-{[5-(4-methylphenyl)-1,3,4-oxadiazol-2-yl]methyl}-3,4-dihydropyrimidin-4-one] was tested, and the EC50 was 10 to 100 nM.
`CCCCc1nc(O)c(Cc2csc(-c3ccc(Cl)cc3)n2)c(=O)n1-c1c(OC)cccc1OC` [Example 22, 2-butyl-5-{[2-(4-chlorophenyl)-1,3-thiazol-4-yl]methyl}-3-(2,6-dimethoxyphenyl)-6-hydroxy-3,4-dihydropyrimidin-4-one] showed an EC50 of 10 to 100 nM.
In the case of `CCCCc1nc(O)c(Cc2csc(-c3ccc(C)cc3)n2)c(=O)n1-c1c(OC)cccc1OC` [Example 23, 2-butyl-3-(2,6-dimethoxyphenyl)-6-hydroxy-5-{[2-(4-methylphenyl)-1,3-thiazol-4-yl]methyl}-3,4-dihydropyrimidin-4-one], the EC50 is reported as 10 to 100 nM.
`CCCCc1nc(O)c(Cc2ccn(-c3ccc(Cl)cc3)n2)c(=O)n1-c1c(OC)cccc1OC` [Example 24, 2-butyl-5-{[1-(4-chlorophenyl)-1H-pyrazol-3-yl]methyl}-3-(2,6-dimethoxyphenyl)-6-hydroxy-3,4-dihydropyrimidin-4-one] was tested, and the EC50 was 0.01 to 10 nM.
In the case of `CCCCc1nc(O)c(Cc2cnn(-c3ccc(C)cc3)c2)c(=O)n1-c1c(OC)cccc1OC` [Example 25, 2-butyl-3-(2,6-dimethoxyphenyl)-6-hydroxy-5-{[1-(4-methylphenyl)-1H-pyrazol-4-yl]methyl}-3,4-dihydropyrimidin-4-one], the EC50 is reported as 0.01 to 10 nM.
`CCCCc1nc(O)c(Cc2cnc(-c3ccc(Cl)cc3)s2)c(=O)n1-c1c(OC)cccc1OC` [Example 26, 2-butyl-5-{[2-(4-chlorophenyl)-1,3-thiazol-5-yl]methyl}-3-(2,6-dimethoxyphenyl)-6-hydroxy-3,4-dihydropyrimidin-4-one] gave an EC50 of 0.01 to 10 nM.
For `CCCCc1nc(O)c(Cc2ccc(Cn3cccn3)cc2)c(=O)n1-c1c(OC)cccc1OC` [Example 27, 2-butyl-3-(2,6-dimethoxyphenyl)-6-hydroxy-5-{[4-(1H-pyrazol-1-ylmethyl)phenyl]methyl}-3,4-dihydropyrimidin-4-one], the EC50 was 0.01 to 10 nM.
With `CCCCc1nc(O)c(Cc2ccc(-n3ccccc3=O)cc2)c(=O)n1-c1c(OC)cccc1OC` [Example 28, 2-butyl-3-(2,6-dimethoxyphenyl)-6-hydroxy-5-{[4-(2-oxo-1,2-dihydropyridin-1-yl)phenyl]methyl}-3,4-dihydropyrimidin-4-one] the EC50 was 0.01 to 10 nM.

Same assay, conditions: HEK293 cells stably expressing human APJ receptor; inhibition of forskolin-mediated cAMP production; read-out: Human APJ cAMP EC50 potency range
In the case of `CCCCc1nc(=O)c(Cc2ccc(Br)cc2)c(O)n1[C@@H](CC)c1cccc(C#N)c1` [Compound 95i, (S)-3-(1-(5-(4-bromobenzyl)-2-butyl-6-hydroxy-4-oxopyrimidin-1(4H)-yl)propyl)benzonitrile], the EC50 is reported as 10 to 100 nM.
In the case of `CCOCc1nc(O)c(Cc2ccc(-n3ccccc3=O)cc2)c(=O)n1-c1c(OC)cccc1OC` [Example 1], the EC50 is reported as 100 to 300 nM.
